According to US20230146455A1, “TREATMENT OF INFLAMMATORY DISEASES WITH PEPTIDES AND PHARMACEUTICAL COMPOSITIONS” (Yuyu Pharma, Inc., priority 2020, published 2023):
“And” between values parts separate entries of the source, which are not always exact repeats. Equal entries are not always repeated. Where a SMILES comes first, the peptide text is derived from it. [ ]: non-standard residue; d: D form. Hyp = O=C(O)[C@@H]1C[C@@H](O)CN1

Tested on: IL-2
Test: Example 9 Luminex, LPS hPBMCs: IL-2
Assay type: cell-based, human
Description: Treatment Human PBMCs were pretreated with YY-101, YDE-011 and YDE-043 or reference compound; Xiidra® at various concentration (ranging from 1 nM to 100 uM) for 2 h before stimulation. An equal volume of 0.5% DMSO was used as a vehicle control. Then, the cells were treated with LPS at 5 ug/ml. The supernatants from treated cells were harvested at 24 h and placed in a 96 well for Luminex cytokine & chemokine profiling using a Luminex 200 multiplex assay (Luminex; R&D system, USA).
The main study arm with triplicate wells per group in a 24-well plate: • 1. Blank • 2. PBMC: 0.5% DMSO • 3. PBMC+LPS (5 ug/ml) • 4. PBMC+YY-101 100 uM • 5. PBMC+YY-101 10 uM • 6. PBMC+YY-101 1 uM • 7. PBMC+YY-101 0.1 uM • 8. PBMC+YY-101 0.01 uM • 9. PBMC+LPS (5 ug/ml)+Xiidra®100 uM • 10. PBMC+LPS (5 ug/ml)+Xiidra® 10 uM • 11. PBMC+LPS (5 ug/ml)+Xiidra® 1 uM • 12. PBMC+LPS (5 ug/ml)+Xiidra®0.1 uM • 13. PBMC+LPS (5 ug/ml)+Xiidra®0.01 uM • 14. PBMC+LPS (5 ug/ml)+Xiidra®0.001 uM • 15. PBMC+LPS (5 ug/ml)+YY-101 100 uM • 16. PBMC+LPS (5 ug/ml)+YY-101 10 uM • 17. PBMC+LPS (5 ug/ml)+YY-101 1 uM • 18. PBMC+LPS (5 ug/ml)+YY-101 0.1 uM • 19. PBMC+LPS (5 ug/ml)+YY-101 0.01 uM • 20. PBMC+LPS (5 ug/ml)+YY-101 0.001 uM • 21. PBMC+LPS (5 ug/ml)+YDE-011 100 uM • 22. PBMC+LPS (5 ug/ml)+YDE-011 10 uM • 23. PBMC+LPS (5 ug/ml)+YDE-011 1 uM • 24. PBMC+LPS (5 ug/ml)+YDE-011 0.1 uM • 25. PBMC+LPS (5 ug/ml)+YDE-011 0.01 uM • 26. PBMC+LPS (5 ug/ml)+YDE-011 0.001 uM • 27. PBMC+LPS (5 ug/ml)+YDE-043 100 uM • 28. PBMC+LPS (5 ug/ml)+YDE-043 10 uM • 29. PBMC+LPS (5 ug/ml)+YDE-043 1 uM • 30. PBMC+LPS (5 ug/ml)+YDE-043 0.1 uM • 31. PBMC+LPS (5 ug/ml)+YDE-043 0.01 uM • 32. PBMC+LPS (5 ug/ml)+YDE-043 0.001 uM
Multiplex assay was used to measure 30 cytokines and chemokines. The 1:2, 1:10 and 1:200 diluted cell supernatant and serial dilution of the standard were dispensed into a 96 well plate at 50 ul/well. Then, the pre-mixed cocktail of antibody-coated magnetic beads was dispensed at 50 ul/well and incubated at room temperature for 2 h in a horizontal orbital microplate shaker at 800±500 rpm. The beads were washed using a magnetic device to prevent loss. The biotin-antibody was dispensed in 50 ul of each well and incubated at room temperature for 1 h in a shaker at 800±500 rpm. After washing, streptavidin-PE was added at 50 ul/well and incubated at room temperature for 30 min in a shaker under the same conditions. Finally, after washing, wash buffer (100 ul/well) was added to the plate and incubated in a shaker for 2 min. The Luminex™ 200 setting were set according to the manufacturer's protocol. The data was calculated with a standard five-parameter logistic nonlinear regression analysis of the data (xPonent software 4.2, USA). The levels of cytokine/chemokine are normalized to the live cell counts (1×10^5 cells/mL) and presented as concentrations per mL (pg/mL or ng/mL).

[1] = PBMC + LPS(5 ug/ml) + test article 0.001 uM, Mean
[2] = PBMC + LPS(5 ug/ml) + test article 0.001 uM, single replicates
[3] = PBMC + LPS(5 ug/ml) + test article 0.01 uM, Mean
[4] = PBMC + LPS(5 ug/ml) + test article 0.01 uM, single replicates
[5] = PBMC + LPS(5 ug/ml) + test article 0.1 uM, Mean
[6] = PBMC + LPS(5 ug/ml) + test article 0.1 uM, single replicates
[7] = PBMC + LPS(5 ug/ml) + test article 1 uM, Mean
[8] = PBMC + LPS(5 ug/ml) + test article 1 uM, single replicates
[9] = PBMC + LPS(5 ug/ml) + test article 10 uM, Mean
[10] = PBMC + LPS(5 ug/ml) + test article 10 uM, single replicates
[11] = PBMC + LPS(5 ug/ml) + test article 100 uM, Mean
[12] = PBMC + LPS(5 ug/ml) + test article 100 uM, single replicates

Structure (SMILES) | IL-2 conc/live cell [1] [pg/10^5] | MFI, Bead name: IL-2 [1] | IL-2 conc/live cell [2] [pg/10^5] | MFI, Bead name: IL-2 [2] | IL-2 conc/live cell [3] [pg/10^5] | MFI, Bead name: IL-2 [3] | IL-2 conc/live cell [4] [pg/10^5] | MFI, Bead name: IL-2 [4] | IL-2 conc/live cell [5] [pg/10^5] | MFI, Bead name: IL-2 [5] | IL-2 conc/live cell [6] [pg/10^5] | MFI, Bead name: IL-2 [6] | IL-2 conc/live cell [7] [pg/10^5] | MFI, Bead name: IL-2 [7] | IL-2 conc/live cell [8] [pg/10^5] | MFI, Bead name: IL-2 [8] | IL-2 conc/live cell [9] [pg/10^5] | MFI, Bead name: IL-2 [9] | IL-2 conc/live cell [10] [pg/10^5] | MFI, Bead name: IL-2 [10] | further results
CC(C)C[C@H](NC(=O)[C@H](CCC(N)=O)NC(=O)CNC(=O)[C@@H]1C[C@@H](O)CN1)C(=O)NCC(=O)O [YDE-043] (H-[Hyp]GQLG-OH; N-terminus and C-terminus assumed) | 0.0 | 6.3 | 0.0 | 3.0 and 8.0 (2×) | 0.0 | 4.7 | 0.0 | 6.0 and 4.0 (2×) | 0.0 | 5.7 | 0.0 | 6.0 and 3.0 and 8.0 | 0.0 | 3.0 | 0.0 | 3.0 and 2.0 and 4.0 | 0.0 | 3.3 | 0.0 | 3.0 and 2.0 and 5.0 | IL-2 conc/live cell [11]: 0.0 pg/10^5; MFI, Bead name: IL-2 [11]: 2.0; IL-2 conc/live cell [12]: 0.0 pg/10^5; MFI, Bead name: IL-2 [12]: 2.0
CC(C)C[C@H](NC(=O)CNC(=O)[C@H](CC(C)C)NC(=O)[C@H](CCC(N)=O)NC(=O)CNC(=O)[C@@H]1C[C@@H](O)CN1)C(=O)N[C@@H](C)C(=O)NCC(=O)N1CCC[C@H]1C(=O)N[C@@H](CCCCN)C(=O)O [YDE-011] (H-[Hyp]GQLGLAGPK-OH) | 0.0 | 4.0 | 0.0 | 4.0 | 0.0 | 5.0 | 0.0 | 5.0 | 0.0 | 6.7 | 0.0 | 7.0 and 8.0 and 5.0 | 0.0 | 5.3 | 0.0 | 6.0 (2×) and 4.0 | 0.0 | 5.3 | 0.0 | 6.0 and 5.0 (2×) | IL-2 conc/live cell [11]: 0.0 pg/10^5; MFI, Bead name: IL-2 [11]: 4.0; IL-2 conc/live cell [12]: 0.0 pg/10^5; MFI, Bead name: IL-2 [12]: 4.0 and 2.0 and 6.0
